# Laboratory results reported in ChEMBL document CHEMBL1255450, “Detection of E119V and E119I mutations in influenza A (H3N2) viruses isolated from an immunocompromised patient: challenges in diagnosis of oseltamivir resistance” (Antimicrob Agents Chemother, 2010).
# Key:
# Format in all cases: functional, organism-based, Influenza A virus (A/Texas/12/2007(H3N2))
# Conditions in all cases: mdck
# Influenza A virus [1] = system: Influenza A virus
# Influenza A virus [2] = system: Influenza A virus; remark: listed apart in the source
# Influenza A virus [3] = system: Influenza A virus; remark: listed apart in the source
# Influenza A virus [4] = system: Influenza A virus; remark: listed apart in the source
# Influenza A virus [5] = system: Influenza A virus; remark: listed apart in the source
# Influenza A virus [6] = system: Influenza A virus; remark: listed apart in the source
# Influenza A virus [7] = system: Influenza A virus; remark: listed apart in the source
SMILES,IC50 (Influenza A virus [1]) [nM],IC50 (Influenza A virus [2]) [nM],IC50 (Influenza A virus [3]) [nM],IC50 (Influenza A virus [4]) [nM],IC50 (Influenza A virus [5]) [nM],IC50 (Influenza A virus [6]) [nM],IC50 (Influenza A virus [7]) [nM],IC50 (Influenza A virus [6]; read-out: IC50) [nM]
CCOC(=O)C1=C[C@@H](OC(CC)CC)[C@H](NC(C)=O)[C@@H](N)C1 [OSELTAMIVIR],246,431,5.49,9.18,33.2,154,8.06,–
C/C=C\[C@@H]1C[C@H](C(=O)O)N[C@H]1[C@@H](NC(C)=O)[C@](C)(CCC)OC,5.45,23.9,1.25,–,4.96,–,1.35,3
CC(=O)N[C@H]1[C@H]([C@H](O)[C@H](O)CO)OC(C(=O)O)=C[C@@H]1NC(=N)N [ZANAMIVIR],–,18.6,–,–,12.7,–,1.54,3.8
CCC(CC)[C@H](NC(C)=O)[C@@H]1[C@H](O)[C@@H](C(=O)O)C[C@H]1NC(=N)N [PERAMIVIR ANHYDROUS],1.47,214,0.43,–,0.9,–,0.51,33.6
